Results taken from publication PMC4268243 (Nuclear medicine and biology, 2014).
Entries after “also recorded” stand apart in the source; their conditions may differ.

Legend:
[1] = test system: SKOV3 estrogen-positive ovarian adenocarcinoma cells; assay: Amino acid uptake and inhibition in SKOV3 cells; format: cell-based, human; settings: SKOV3, 30 minutes incubation
A549 tumor xenograft = assay: Biodistribution in A549 tumor-bearing SCID mice; format: in vivo; settings: listed as (R)-[^18F]MeFAMP 2
[2] = test system: A549 lung adenocarcinoma cells; assay: Amino acid uptake and inhibition in A549 cells; format: cell-based, human; settings: A549, 30 minutes incubation
DU145 tumor xenograft = assay: Biodistribution in DU145 tumor-bearing SCID mice; format: in vivo; settings: listed as (R)-[^18F]MeFAMP 2
U87 tumor xenograft = assay: Biodistribution in U87 tumor-bearing SCID mice; format: in vivo; settings: listed as (R)-[^18F]MeFAMP 2
[3] = test system: MDA MB468 tumor xenograft; assay: Biodistribution in MDA MB468 tumor-bearing SCID mice; format: in vivo; settings: listed as (R)-[^18F]MeFAMP 2
[4] = test system: SCID mice xenograft tumor models; format: in vivo; settings: in most cases, over tumors and time points
[5] = test system: MDA MB468 estrogen-independent breast carcinoma cells; assay: Amino acid uptake and inhibition in MDA MB468 cells; format: cell-based, human; settings: MDA MB468, 30 minutes incubation
[6] = test system: DU145 androgen-independent prostate carcinoma cells; assay: Amino acid uptake and inhibition in DU145 cells; format: cell-based, human; settings: DU145, 30 minutes incubation
SKOV3 tumor xenograft = assay: Biodistribution in SKOV3 tumor-bearing SCID mice; format: in vivo; settings: listed as (R)-[^18F]MeFAMP 2
U87 glioblastoma cells = assay: Amino acid uptake and inhibition in U87 cells; format: cell-based, human; settings: U87, 30 minutes incubation
[7] = test system: human A549, DU145, U87, MDA MB468 and SKOV3 tumor cells; assay: Amino acid uptake and inhibition, summary over the five tumor cell lines; format: cell-based
[8] = test system: rat orthotopic brain tumor model; settings: rat model; cited from earlier work
[9] = Brain uptake of [18F]FET in nude mice; format: in vivo

CN[C@@](C)(C[18F])C(=O)O [(R)-[^18F]2] [3-[^18F]fluoro-2-methyl-2-N-(methylamino)propanoic acid]
Cell uptake ([1]; 10 mM BCH): 4.5±0.7 % ID/5×10^5 cells | Cell uptake ([1]; 10 mM MeAIB): 0.5±0.2 % ID/5×10^5 cells | Cell uptake ([1]; Control (no inhibitor)): 3.9±0.6 % ID/5×10^5 cells | uptake in tumor (A549 tumor xenograft; 15 min post injection): 5.3±1.9 %ID/g | uptake in liver (A549 tumor xenograft; 30 min post injection): 7.5±1.5 %ID/g | uptake in spleen (A549 tumor xenograft; 30 min post injection): 9.8±1.3 %ID/g | uptake in tumor (A549 tumor xenograft; 30 min post injection): 6.3±1.3 %ID/g | uptake in liver (A549 tumor xenograft; 60 min post injection): 5.2±0.3 %ID/g | Cell uptake ([2]; 10 mM BCH): 3.1±0.1 % ID/5×10^5 cells | Cell uptake ([2]; 10 mM MeAIB): 0.4±0.04 % ID/5×10^5 cells | Cell uptake ([2]; Control (no inhibitor)): 2.4±0.2 % ID/5×10^5 cells | uptake in liver (DU145 tumor xenograft; 15 min post injection): 7.8±1.2 %ID/g | uptake in tumor (DU145 tumor xenograft; 15 min post injection): 5.2±1.2 %ID/g | uptake in pancreas (DU145 tumor xenograft; 30 min post injection): 53±17 %ID/g | uptake in spleen (DU145 tumor xenograft; 120 min post injection): 7.4±1.6 %ID/g | uptake in pancreas (U87 tumor xenograft; 15 min post injection): 74±11 %ID/g | uptake in tumor (U87 tumor xenograft; 30 min post injection): 5.9±1.1 %ID/g | uptake in kidney (U87 tumor xenograft; 60 min post injection): 6.8±1.3 %ID/g | uptake in liver (U87 tumor xenograft; 60 min post injection): 6.8±1.3 %ID/g | uptake in tumor (U87 tumor xenograft; 60 min post injection): 5.8±0.8 %ID/g | uptake in spleen (U87 tumor xenograft; 120 min post injection): 6.1±0.5 %ID/g | uptake in pancreas ([3]; 15 min post injection): 59±3.3 %ID/g | uptake in kidney ([3]; 60 min post injection): 5.9±0.8 %ID/g | uptake in spleen ([3]; 120 min post injection): 6.6±0.8 %ID/g | ratio of tumor to muscle [4]: > 4 | Cell uptake ([5]; 10 mM BCH): 1.5±0.2 % ID/5×10^5 cells | Cell uptake ([5]; 10 mM MeAIB): 0.5±0.2 % ID/5×10^5 cells | Cell uptake ([5]; Control (no inhibitor)): 1.4±0.1 % ID/5×10^5 cells | Cell uptake ([6]; 10 mM BCH): 1.9±0.1 % ID/5×10^5 cells | Cell uptake ([6]; 10 mM MeAIB): 0.4±0.1 % ID/5×10^5 cells | Cell uptake ([6]; Control (no inhibitor)): 1.5±0.2 % ID/5×10^5 cells | uptake in tumor (SKOV3 tumor xenograft; 60 min post injection): 7.5±1.8 %ID/g | uptake in spleen (SKOV3 tumor xenograft; 120 min post injection): 6.8±0.6 %ID/g | Cell uptake (U87 glioblastoma cells; 10 mM BCH): 3.5±0.2 % ID/5×10^5 cells | Cell uptake (U87 glioblastoma cells; 10 mM MeAIB): 0.6±0.1 % ID/5×10^5 cells | Cell uptake (U87 glioblastoma cells; Control (no inhibitor)): 2.7±0.3 % ID/5×10^5 cells | inhibition of uptake by BCH ([7]; 10 mM BCH, relative to control, most cell lines): no BCH inhibition was observed in most cases | inhibition of uptake by MeAIB ([7]; 10 mM MeAIB, relative to control, most cell lines): 50-91% | uptake in tumor cells ([7]; 30 minutes incubation, without inhibitors, range over the cell lines): 1-7 %ID/5×10^5 cells | amino acid transport system mediating uptake / selectivity ([7]; AAT cell inhibition assays with MeAIB and BCH): high selectivity for system A AAT; also recorded: the most selective for system A transport

NC1(C(=O)O)CC([18F])C1 (stereo not shown) [[^18F]FACBC, [18F]1-amino-3-fluorocyclobutane-1-carboxylic acid, reference compound]
brain uptake [8]: 0.26±0.03 %ID/g

N[C@@H](Cc1ccc(OCC[18F])cc1)C(=O)O [[^18F]FET, O-(2-[^18F]fluoroethyl)-L-tyrosine]
fold higher brain uptake than [18F]1 ([9]; [18F]FET in nude mice vs [18F]1 in SCID mice): 2.5-3.5 fold | fold higher brain uptake than [18F]2 ([9]; [18F]FET in nude mice vs [18F]2 in SCID mice): 7-14 fold
